Measured values: patent US12396987B2, “Pharmaceutical composition with excellent storage stability” (ISHIHARA SANGYO KAISHA, LTD., priority 2018, dated 2025)
“Also recorded” adds a separate entry of the source. Structures can show the parent of a compound that is named as a salt.

How the values were obtained:
[1] = Inhibition of decomposition of compound 1-containing liquid composition with antioxidant added (60° C., 48 hours); format: physicochemical; conditions: compound 1 250 μM, Tween 80 1.0 v/v %, antioxidant 250 μM, 60° C. for 48 hours (FIG. 6)
Protocol: In this test, an additive (antioxidant) that traps reactive oxygen species (ROS) was added to investigate the usefulness in the aqueous solution of the compound 1 for inhibition of decomposition under thermal conditions. A compound 1, Tween 80 and an antioxidant was metered, and Milli-Q water was added so that the concentration of the compound 1 and Tween 80 became 250 μM and 1.0 v/v %, respectively. Subsequently, four antioxidants were added so that each of the concentration thereof became 250 μM to obtain a compound 1-containing liquid composition with an antioxidant added. The content of D1 after the composition was heated at 60° C. for 48 hours was evaluated.

[2] = clinical use as additive; cited from earlier work
[3] = Solution stability of compound 1-containing liquid composition with VC added (heating to 60° C.); format: physicochemical; conditions: VC 250, 500 or 2,500 μM, compound 1 250 μM, Tween 80 1.0 v/v %
Protocol: (§1) Measurement of the residual rate of the compound 1 and the content of the decomposition products in the following Examples 3 to 9 was performed under the following conditions: • Analyzer: HPLC-PDA system: CBM-20Avp system controller, SIC-20ADvp autosampler, LC-20ADvp feed pump, DGU-20A degasser, CTO-20Avp column oven, SPD-M10Avp photodiode array detector, manufactured by Shimadzu Corporation • Column: Kinetex® Biphenyl […] (50×4.6 mm), manufactured by Shimadzu Corporation
Effects of the amount of VC added on the solution stability of the compound 1 were investigated. Preparation was performed in the same manner as for the compound 1-containing liquid composition in Example 8 except that the concentration of VC was 250, 500 or 2,500 μM. The decomposition of the compound 1 and the production of D1 at the time of addition were evaluated (mean±standard error, n=3). After heating to 60° C., and the residual rate of the compound 1 and the content of D1 were evaluated over time, and the results are shown in FIG. 7. The residual rate (% by mass) of the compound 1 in the solution and the content (% by area) of D1 were calculated by the same calculation method as in Examples 3 to 8.

phospholipase A2 = conditions: known from Patent Document 1; cited from earlier work
[4] = Pharmacokinetic evaluation of hydrogelated liquid composition, subcutaneous administration to rats; format: in vivo, SD male rats; conditions: 5 mg/kg
Protocol: A compound 1 (3.5 mg), Kolliphor (registered trademark) P188 (200 mg), Kolliphor (registered trademark) P407 (150 mg) and purified water (1.0 mL) were mixed using a vortex mixer to obtain a liquid composition. Then, the above liquid composition was stored at 4° C. overnight to obtain a hydrogel.
To evaluate the sustained-release ability of the hydrogelated liquid composition prepared in the above Example 11(a), the drug concentration in blood was measured over time after subcutaneous administration of the hydrogel or a compound 1 bulk powder to rats. Specifically, the hydrogel or the compound 1 bulk powder, at a dose of 5 mg/kg as an amount of the compound 1, was singly subcutaneously administered to SD male rats. After subcutaneous administration, blood was collected over time from the tail vein, and the blood was transferred into a micro test tube treated with heparin, and immediately cooled in ice. After cooling in ice, the blood was immediately centrifuged at 4° C. and 10,000 g for 10 minutes.
In Table 10, pharmacokinetic parameter was expressed as mean±standard error (n=3 to 6).

[5] = Forced decomposition test of compound 1 (heat, acid, base, oxidation, light; HPLC-PDA); format: physicochemical
Protocol: A forced decomposition test of the compound 1 was performed under stress conditions of heat, acid, base, oxidation and light. A compound 1-containing solution was stored under the conditions shown in Table 4 below, and then the concentrations of the compound 1 and the decomposition products in the solution were measured using a high performance liquid chromatography-photodiode array detector (HPLC-PDA system). An incubator was used for heating, and a light resistance tester was used for irradiation with pseudo-sunlight in a photodecomposition test. The content of the compound 1 in the compound 1-containing solution produced was measured by the HPLC-PDA system, and the value thereof was regarded as the initial content.
The content of D1 and D3 in the solution was represented by the proportion (% by area) of the peak area of each compound to the total peak area of HPLC analysis of the composition obtained after the decomposition test. Furthermore, the residual rate (% by mass) of the compound 1 was calculated by dividing the content after storage by the initial content using the absolute calibration method.
as §1
A compound 1 was metered, and Milli-Q water was added so that the compound 1 could be solubilized, thus obtaining an aqueous solution of the compound 1 (250 μM) so that the concentration of the compound 1 became 250 μM.
The aqueous solution of the compound 1 thus obtained (250 μM) was heated at 60° C., followed by measurement using the HPLC-PDA system.
The aqueous solution of the compound 1 obtained in Example 3 (250 μM) was heated under acid (0.1N HCl) conditions, followed by measurement of the decomposition products using the HPLC-PDA system. […] Addition of an acid decreased the production of D1 and promoted the production of D3.
The aqueous solution of the compound 1 obtained in Example 3 (250 μM) was heated under base (0.1N NaOH) conditions, followed by measurement of the decomposition products using the HPLC-PDA system. […] Addition of a base promoted the production of D1. Other peaks (0.11% by area) were observed.
The aqueous solution of the compound 1 obtained in Example 3 (250 μM) was stored under conditions of ordinary temperature and hydrogen peroxide (3 v/v %), followed by measurement of the decomposition products using the HPLC-PDA system.
The aqueous solution of the compound 1 obtained in Example 3 (250 μM) was irradiated with pseudo-sunlight (250 W/m^2, 2 hours), followed by measurement of the decomposition products using the HPLC-PDA system. […] Therefore, it was confirmed that the aqueous solution of the compound 1 was photostable.

[6] = Heat: 60° C., 48 h, —: Undetected
[7] = Oxidation: 3.0% H2O2, room temperature, 48 h

N[C@@H](CS)C(=O)O [cysteine, L-Cysteine]
Inhibition of decomposition of compound 1 / production of D1 by added antioxidant [1]: remarkably inhibited the production of D1
Maximum dose during intravenous injection [2]: 8 mg

O=C1O[C@H]([C@@H](O)CO)C(O)=C1O [VC, L-ascorbic acid]
Inhibition of decomposition of compound 1 / production of D1 by added antioxidant [1]: remarkably inhibited the production of D1
Residual rate of the compound 1 over time with VC added ([3]; 60° C. (FIG. 7A)): increased depending on the concentration of VC added
Content of D1 over time with VC added ([3]; 60° C. (FIG. 7B)): decreased depending on the concentration of VC added

CCS(=O)(=O)Nc1ncc(C(F)(F)F)cc1NC(=O)C1CCCCC1 [N-(2-ethylsulfonylamino-5-trifluoromethyl-3-pyridyl)cyclohexanecarboxamide]
Inhibitory effect on phospholipase A2 (phospholipase A2): has an inhibitory effect on phospholipase A2

CCS(=O)(=O)Nc1ncc(C(F)(F)F)cc1NC(=O)C1CCCCC1 [Compound 1, N-(2-ethylsulfonylamino-5-trifluoromethyl-3-pyridyl)cyclohexanecarboxamide-monosodium salt-monohydrate]
Concentration in plasma at 12 hours after administration [4]: below the detection limit
Content of D3 after the forced decomposition test ([5]; Acid: 0.1N HCl, 60° C., 48 h): 16.18 % by area
Other peaks (other than D1 and D3), maximum ([5]; Acid: 0.1N HCl, 60° C., 48 h): ≤ 1.36 % by area
Residual rate of the compound 1 after the forced decomposition test ([5]; Acid: 0.1N HCl, 60° C., 48 h): 77.1 % by mass
Content of D1 after the forced decomposition test ([5]; Acid: 0.1N HCl, 60° C., 48 h, —: Undetected): below the detection limit
Content of D1 after the forced decomposition test ([5]; Base: 0.1N NaOH, 60° C., 48 h): 17.62 % by area
Content of D3 after the forced decomposition test ([5]; Base: 0.1N NaOH, 60° C., 48 h): 0.50 % by area
Other peaks (other than D1 and D3) ([5]; Base: 0.1N NaOH, 60° C., 48 h): 0.11 % by area
Residual rate of the compound 1 after the forced decomposition test ([5]; Base: 0.1N NaOH, 60° C., 48 h): 77.3 % by mass
Residual rate of the compound 1 after the forced decomposition test ([5]; Heat: 250 μM aqueous solution, 60° C., 48 h): 88.7 % by mass
Other peaks (other than D1 and D3) ([5]; Heat: 60° C., 48 h): No other peaks were detected
Content of D1 after the forced decomposition test [5, 6]: 8.08 % by area
Content of D3 after the forced decomposition test [5, 6]: below the detection limit
Residual rate of the compound 1 after the forced decomposition test ([5]; Light: pseudo-sunlight 250 W/m^2, room temperature, 2 h): 97.4 % by mass
Content of D1 after the forced decomposition test [5, 7]: 0.30 % by area
Residual rate of the compound 1 after the forced decomposition test [5, 7]: 75.9 % by mass
Content of D3 after the forced decomposition test ([5]; Oxidation: 3.0% H2O2, room temperature, 48 h, —: Undetected): below the detection limit
Peaks other than D1 and D3, maximum ([5]; Oxidation: hydrogen peroxide 3 v/v %, ordinary temperature): ≤ 1.79 % by area
Photostability of the aqueous solution (decomposition products after irradiation) ([5]; pseudo-sunlight 250 W/m^2, 2 hours): No decomposition product was detected; also recorded: photostable
